Measured values taken from ChEMBL document CHEMBL1255331, “Emergence of fluoroquinolone resistance in group B streptococcal isolates in Taiwan” (2008).
Values after ≈ are worked out from the molar mass of the structure shown.

Tests used:
Format in all cases: functional
[1] = system: Streptococcus sp. 'group B'; assay: Antimicrobial activity against Streptococcus sp. 'group B' isolate 9 harboring gyrA Ser81Leu mutant, parC Ser79Tyr mutant and parE Ileu495Leu mutant gene by agar dilution method
[2] = system: Streptococcus sp. 'group B'; assay: Antimicrobial activity against Streptococcus sp. 'group B' isolate 16 harboring gyrA Ser81Leu mutant, parC Ser79Tyr mutant and parE Ileu495Leu mutant gene by agar dilution method
[3] = system: Streptococcus sp. 'group B'; assay: Antimicrobial activity against Streptococcus sp. 'group B' isolate 1 harboring gyrA Glu85Lys mutant, parC Ser79Tyr mutant and parE Ileu495Leu mutant gene by agar dilution method

Row | SMILES | MIC [1] | MIC [2] | MIC [3]
1 | O=C(O)c1cn(C2CC2)c2cc(N3CCNCC3)c(F)cc2c1=O [CIPROFLOXACIN] | 64 µg/mL (≈ 193 µM) | 32 µg/mL (≈ 96.6 µM) | –
2 | C[C@H]1NCc2cc(-c3ccc4c(=O)c(C(=O)O)cn(C5CC5)c4c3OC(F)F)ccc21 [GARENOXACIN] | 2 µg/mL (≈ 4.69 µM) | 2 µg/mL (≈ 4.69 µM) | 2 µg/mL (≈ 4.69 µM)
3 | COc1c(N2CCNC(C)C2)c(F)cc2c(=O)c(C(=O)O)cn(C3CC3)c12 (configuration not stated) [GATIFLOXACIN] | 4 µg/mL (≈ 10.7 µM) | 8 µg/mL (≈ 21.3 µM) | 4 µg/mL (≈ 10.7 µM)
4 | C[C@H]1COc2c(N3CCN(C)CC3)c(F)cc3c(=O)c(C(=O)O)cn1c23.C[C@H]1COc2c(N3CCN(C)CC3)c(F)cc3c(=O)c(C(=O)O)cn1c23.O [LEVOFLOXACIN] | 16 µg/mL | 32 µg/mL | 16 µg/mL
5 | COc1c(N2C[C@@H]3CCCN[C@@H]3C2)c(F)cc2c(=O)c(C(=O)O)cn(C3CC3)c12 [MOXIFLOXACIN] | 4 µg/mL (≈ 9.96 µM) | 4 µg/mL (≈ 9.96 µM) | 2 µg/mL (≈ 4.98 µM)
6 | N[C@@H]1[C@H]2CN(c3nc4c(cc3F)c(=O)c(C(=O)O)cn4-c3ccc(F)cc3F)C[C@@H]12 [TROVAFLOXACIN] | 8 µg/mL (≈ 19.2 µM) | 16 µg/mL (≈ 38.4 µM) | 8 µg/mL (≈ 19.2 µM)
